{"source": "patent US20190262453A1", "about": "“DESIGN AND COMPOSITION OF CELL-STABILIZED PHARMACEUTICAL FORMULATIONS” (THE REGENTS OF THE UNIVERSITY OF MICHIGAN, priority 2016, published 2019)", "key": {"[1]": {"tested_on": "peritoneal macrophages", "test": "Peritoneal lavage: cell counts and CLDI-containing cells", "format": "in vivo, Mice", "details": "PBS-CFZ fed group, peritoneal cavity", "description": "In order to deplete tissue macrophages, mice were treated with liposomes containing either 7 mg/mL clodronate or phosphate-buffered saline (PBS) (FormuMax Scientific Inc., Sunnyvale, Calif.) for up to six weeks. Liposomes were injected IP to eliminate macrophages of the liver, spleen, and peritoneal cavity. Mice were initially treated with 200 μL of liposomes, followed by 100 μL injections twice per week to ensure continual depletion of macrophages. Mice were fed CFZ or a control diet continuously for a four week period. Following two weeks of feeding, liposome treatment began for two weeks. After completing four weeks of feeding and two weeks of liposome treatment, the mice were sacrificed and tissues were collected. Following euthanasia, a small incision was made in the lower abdomen. […] The peritoneal lavage was centrifuged for 10 min at 400×g, 4° C,and then resuspended in DMEM media (Life Technologies). The cells were then plated onto 4 or 8 chamber coverglass (#1.5, Lab-Tek II, Nunc, Rochester, N.Y.) for imaging. The cells were allowed to attach overnight and then washed with media."}, "[2]": {"details": "cited from earlier work"}, "[3]": {"tested_on": "RAW264.7 cells", "description": "Drug Uptake. Measurement of CFZ uptake in RAW264.7 cells was performed using a modified absorbance spectroscopy method using 9 M H2SO4 (pH<<0.1) to digest the entire cell population and extract CFZ from the cells. Cells at a very high seeding density of 50,000 cells/well, grown in a 96 well tissue culture plate in 280 μl/well of DMEM +10% FBS +1% P/S (growth media), were pre-incubated with varying concentrations of BafA1 (0-4 nM) and NPPB (0-200 μM) for 4 hours before adding CFZ dissolved in DMSO such that final concentrations of CFZ were in the range of 0-8 μM. Post 4 and 24 hours exposure to CFZ, growth media was aspirated out and the cells were washed with PBS twice before adding 100 μl/well of 9 M H2SO4 and incubated at room temperature for 30 minutes before spectrophotometric quantification using a Synergy 2 plate reader (BioTek, Winooski, Vt.) at 540 nm (Abs540) and 750 nm (Abs750) (for background). Standards were prepared on the same plate by adding 100 μl/well pre-determined standards of CFZ. Total uptake was reported as total picomoles of intracellular drug as measured and calculated using the standard curve.\nCell Viability Measurement: Comparing Wet Lab Experimental Study with Simulation Study. In order to compare wet lab experimental cell viability determination with that of model simulation, the rate at which drug accumulation occurred in the experimental study was calculated. […] Then, cell viability was calculated using the following equation: […]\nIn vitro analysis (CFZ accumulation). […] Furthermore, the following comparisons are reported as a percentage (%) of CFZ accumulation measured in uninhibited cells under the various tested CFZ concentrations and 8 μM CFZ concentration, in the wet lab experimental and simulation studies, respectively."}, "[4]": {"tested_on": "RAW264.7 cells", "test": "Cell viability (XTT assay)", "format": "cell-based", "description": "Cell Viability. Viability of RAW264.7 cells were performed using Cell Proliferation Kit II (XTT) (Roche Applied Science, Mannheim, Germany, Cat. No. 11465015001) using the manufacturer's instructions. […] Post 24 hours exposure to CFZ, the cells were incubated with the yellow XTT solution (final concentration 0.3 mg/ml) for 4 h. […] An increase in number of living cells directly correlates to the amount of orange formazan formed, as monitored by the solution absorbance at 500 nm (Abs500). The following formula was used to determine viability of drug and inhibitor treated cells using untreated cells (blank) as a control—Cell Viability=(Abs500, treated—Abs700,treated)/(Abs500, blank—Abs700,blank)."}, "[5]": {"test": "Biochemical analysis of CFZ in tissues", "format": "in vivo", "details": "clodronate-treated mice versus PBS", "description": "Mice were fed CFZ or a control diet continuously for a four week period. Following two weeks of feeding, liposome treatment began for two weeks. After completing four weeks of feeding and two weeks of liposome treatment, the mice were sacrificed and tissues were collected.\nThe concentration of CFZ in organs was determined spectrophotometrically. After four weeks of CFZ- or vehicle-diet treatment, mice were euthanized via CO2 asphyxiation, and blood and organs were collected. Tissue (20-30 mg) was homogenized in 500 μL of RIPA buffer, and 350 μL of homogenate was removed drug was extracted with three passes of 1 mL of xylenes. The drug was then extracted from the xylene with three 1 mL passes of 9M sulfuric acid. The concentration of CFZ present in the tissue was then determined using a plate reader at wavelength 450 nm."}}, "note": "Read-outs that look alike come from different tables or passages of the source."}
{"compound": "CC(C)N=c1cc2n(-c3ccc(Cl)cc3)c3ccccc3nc-2cc1Nc1ccc(Cl)cc1", "note": "[CFZ, 3-(p-chloroanilino)-10-(p-chlorophenyl)-2, 10-dihydro-2-isopropyliminophenazine]", "values": [{"measurement": "macrophages containing at least one intracellular CLDI", "setting": "[1]", "result": "approximately 50%"}, {"measurement": "pharmacologically-relevant concentrations measured in serum", "setting": "[2]", "result": "1 to 20", "unit": "μM"}, {"measurement": "CFZ accumulation relative to uninhibited cells", "setting": "[3]; 2 nM BafA1, initial CFZ=4 μM, 4 hours", "result": "80±13", "unit": "%"}, {"measurement": "CFZ accumulation relative to uninhibited cells", "setting": "[3]; 2 nM BafA1, initial CFZ=4 μM, 24 hours", "result": "67±12", "unit": "%"}, {"measurement": "CFZ accumulation relative to uninhibited cells", "setting": "[3]; 2 nM BafA1, initial CFZ=6 μM, 4 hours", "result": "75±11", "unit": "%"}, {"measurement": "CFZ accumulation relative to uninhibited cells", "setting": "[3]; 2 nM BafA1, initial CFZ=6 μM, 24 hours", "result": "71±19", "unit": "%"}, {"measurement": "CFZ accumulation relative to uninhibited cells", "setting": "[3]; 2 nM BafA1, initial CFZ=8 μM, 4 hours", "result": "63±9", "unit": "%"}, {"measurement": "CFZ accumulation relative to uninhibited cells", "setting": "[3]; 2 nM BafA1, initial CFZ=8 μM, 24 hours", "result": "67±12", "unit": "%"}, {"measurement": "CFZ accumulation relative to uninhibited cells", "setting": "[3]; BafA1=4 nM, initial CFZ=4 μM, 4 hours", "result": "29±4", "unit": "%"}, {"measurement": "CFZ accumulation relative to uninhibited cells", "setting": "[3]; BafA1=4 nM, initial CFZ=4 μM, 24 hours", "result": "42±6", "unit": "%"}, {"measurement": "CFZ accumulation relative to uninhibited cells", "setting": "[3]; BafA1=4 nM, initial CFZ=6 μM, 4 hours", "result": "47±9", "unit": "%"}, {"measurement": "CFZ accumulation relative to uninhibited cells", "setting": "[3]; BafA1=4 nM, initial CFZ=6 μM, 24 hours", "result": "38±9", "unit": "%"}, {"measurement": "CFZ accumulation relative to uninhibited cells", "setting": "[3]; BafA1=4 nM, initial CFZ=8 μM, 4 hours", "result": "43±8", "unit": "%"}, {"measurement": "CFZ accumulation relative to uninhibited cells", "setting": "[3]; BafA1=4 nM, initial CFZ=8 μM, 24 hours", "result": "26±4", "unit": "%"}, {"measurement": "CFZ accumulation relative to uninhibited cells", "setting": "[3]; NPPB=50 μM, CFZ=4 μM, 24 hours", "result": "73±10", "unit": "%"}, {"measurement": "CFZ accumulation relative to uninhibited cells", "setting": "[3]; NPPB=50 μM, CFZ=6 μM, 24 hours", "result": "73±17", "unit": "%"}, {"measurement": "CFZ accumulation relative to uninhibited cells", "setting": "[3]; NPPB=50 μM, CFZ=8 μM, 24 hours", "result": "72±10", "unit": "%"}, {"measurement": "CFZ accumulation relative to uninhibited cells", "setting": "[3]; NPPB=100 μM, CFZ=4 μM, 24 hours", "result": "46±5", "unit": "%"}, {"measurement": "CFZ accumulation relative to uninhibited cells", "setting": "[3]; NPPB=100 μM, CFZ=6 μM, 24 hours", "result": "41±12", "unit": "%"}, {"measurement": "CFZ accumulation relative to uninhibited cells", "setting": "[3]; NPPB=100 μM, CFZ=8 μM, 24 hours", "result": "41±7", "unit": "%"}, {"measurement": "CFZ accumulation relative to uninhibited cells", "setting": "[3]; NPPB=200 μM, CFZ=4 μM, 24 hours", "result": "30±7", "unit": "%"}, {"measurement": "CFZ accumulation relative to uninhibited cells", "setting": "[3]; NPPB=200 μM, CFZ=6 μM, 24 hours", "result": "32±12", "unit": "%"}, {"measurement": "CFZ accumulation relative to uninhibited cells", "setting": "[3]; NPPB=200 μM, CFZ=8 μM, 24 hours", "result": "37±7", "unit": "%"}, {"measurement": "rate of drug accumulation", "setting": "[3]; mouse, 8 µM", "result": "~0.01", "unit": "picomol/cell/day"}, {"measurement": "change in CFZ accumulation in inhibited relative to uninhibited cells", "setting": "[3]; pre-incubated with various concentrations of NPPB, CFZ for 4 hours at varying concentrations", "result": "no significant change"}, {"measurement": "cell viability", "setting": "[4]; BafA1=4 nM and CFZ=10 μM, n=6", "result": "76±13", "unit": "%"}, {"measurement": "cell viability", "setting": "[4]; BafA1=6 nM, all concentrations of CFZ", "result": "48-85%"}, {"measurement": "cell viability", "setting": "[4]; BafA1=8 nM, all concentrations of CFZ", "result": "33-77%"}, {"measurement": "cell viability", "setting": "[4]; exposed to NPPB (all tested concentrations) prior to varying concentrations of CFZ", "result": "> 92", "unit": "%"}, {"measurement": "effect on cell viability", "setting": "[4]; incubation of the substance alone, RAW264.7, XTT", "result": "no significant effect"}, {"measurement": "cell viability", "setting": "[4]; up to 4 nM BafA1 prior to up to 8 μM CFZ", "result": "> 91", "unit": "%"}, {"measurement": "reduction in the total amount of drug found in the liver", "setting": "[5]", "result": "75±7", "unit": "%"}, {"measurement": "reduction in the total amount of drug found in the spleen", "setting": "[5]", "result": "88±7", "unit": "%"}, {"measurement": "difference in total amount of drug found in the kidney", "setting": "[5]; p=0.77", "result": "no difference"}]}
